The values that follow come from PMC7939384, “In crystallo screening for proline analog inhibitors of the proline cycle enzyme PYCR1” (The Journal of Biological Chemistry, 2021).

The test system of experiment [1] is MCF10A hRAS^V12 breast cancer spheroids. In words: 13C5-glutamine tracer analysis of de novo proline biosynthesis in spheroids. In kind it is cell-based. The note with it: 5 mM, 5th day of treatment, 13C5-glutamine incubation, vs untreated. The source says:
We tested whether NFLP treatment decreases proline biosynthesis in breast cancer cells grown as spheroids. To do so we applied ^13C tracer analysis ([19]), which is a method that can inform about nutrient contribution to biosynthetic pathways, to MCF10A hRAS^V12 breast cancer spheroids grown in DMEM/F12 containing proline. Specifically, we measured the contribution of ^13C5-glutamine to proline, which enables us to conclude on changes in de novo proline biosynthesis.
Figure 7 NFLP targets proline metabolism in breast cancer spheroids.A, abundance of proline M + 0 and M + 5 labeling in MCF10A hRAS^V12 spheroids upon ^13C5-glutamine incubation and treatment without (n = 3) or with NFLP (5 mM; n = 3). Analysis was performed at 5th day of treatment. B, relative abundance of intracellular proline levels in MCF10A hRAS^V12 spheroids upon treatment (5 days) without (n = 6), with THFA (n = 3) or with NFLP (n = 6). C, protein content in MCF10A hRAS^V12 spheroids treated for 5 days without (n = 6), with THFA (n = 3) or with NFLP (n = 6). Bar graphs show mean ± S.D. from biological independent samples and P-values were obtained with Mann-Whitney tests. […]
THFA and NFLP were supplemented (pH neutralized with NaOH) at day zero to the media of MCF10A H-RAS^V12 cells at the concentration of 5 mM. Protein levels were detected with the use of a […] (Thermo Scientific). […]

For experiment [2], the system named is MCF10A hRAS^V12 spheroids. Nature of the experiment: Intracellular proline abundance in spheroids (GC-MS). It counts as cell-based. The note with it: 5 mM, 5 days.
The target in experiment [3] is T1, E. coli PutA PRODH domain (EcPutA86-630) (Escherichia coli, UniProt P09546).
T1 construct: Proline Utilization A from E. coli (EcPutA86-630)
T1 sequence (P09546 86-630): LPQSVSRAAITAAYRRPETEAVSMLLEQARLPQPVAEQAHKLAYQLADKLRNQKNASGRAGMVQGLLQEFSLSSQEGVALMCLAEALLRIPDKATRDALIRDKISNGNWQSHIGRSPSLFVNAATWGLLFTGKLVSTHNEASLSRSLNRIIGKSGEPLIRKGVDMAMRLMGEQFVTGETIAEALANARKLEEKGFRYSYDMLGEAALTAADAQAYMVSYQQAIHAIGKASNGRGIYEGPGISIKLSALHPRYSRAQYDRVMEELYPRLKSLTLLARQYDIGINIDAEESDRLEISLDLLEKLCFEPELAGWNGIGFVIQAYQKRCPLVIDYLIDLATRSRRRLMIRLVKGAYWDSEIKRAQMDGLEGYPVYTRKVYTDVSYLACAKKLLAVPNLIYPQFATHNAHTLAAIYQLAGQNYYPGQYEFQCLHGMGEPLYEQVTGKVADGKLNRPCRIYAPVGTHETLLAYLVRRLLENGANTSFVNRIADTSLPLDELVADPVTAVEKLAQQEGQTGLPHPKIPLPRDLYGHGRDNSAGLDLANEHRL
In words: PRODH activity assay (o-AB/P5C adduct at 443 nm). In kind it is biochemical. The note with it: 100 mM NFLP as substrate; 0, 1, 5 or 10 mM NFLP with 100 mM L-proline. The protocol: The rates have been normalized to the rate obtained in the absence of NFLP.
Assays were performed to test whether NFLP is a substrate or inhibitor of PRODH. Because of challenges in obtaining active recombinant human PRODH, which is an inner mitochondrial membrane protein, these experiments used the PRODH domain of the bifunctional proline catabolic enzyme, Proline Utilization A from E. coli (EcPutA86-630). The active sites of human and bacterial PutA PRODH domains are very highly conserved. For example, all residues that contact proline analog inhibitors in crystal structures of bacterial PRODHs are identically present in human PRODH, as we described previously ([6]). Thus, bacterial PRODHs are considered to be good surrogates for identifying inhibitors of human PRODH. Indeed, the inhibitors discovered using bacterial PRODHs show on-target activity in cancer cells and animal models of cancer ([5], [21]).
PRODH activity was measured in a BioTek Epoch 2 microplate spectrophotometer by monitoring P5C as the adduct formed by the reaction with o-AB at 443 nm. The assays were conducted at 25°C in 20 mM MOPS, pH 7.5, and 10 mM MgCl2 with 4 mM o-AB, 0.15 mM menadione (electron acceptor to re-oxidize the FAD), and 1.3 μM of EcPutA86-630. The enzyme mixture contained EcPutA86-630, o-AB, menadione, and buffer. […]

As to `O=CN1CCC[C@H]1C(=O)O` [NFLP, N-formyl L-proline], in experiment [1], the “13C-labeled (M + 5) fraction of proline” value is on record as “decreased” and the “unlabeled (M + 0) fraction of proline” value is “increased”. Also, in experiment [2], the “increase of intracellular proline abundance compared with THFA” value was “about 10 fold” and the “increase of intracellular proline abundance compared with control” value is about 40 fold. The “substrate or inhibitor of bacterial PRODH (in words)” value in experiment [3] is listed as “neither a substrate nor an inhibitor”.
